Results: ChEMBL document CHEMBL1909046, “DrugMatrix in vitro pharmacology data”

Columns and labels:
[1] = target: T1, Substance-K receptor (Homo sapiens, UniProt P21452); type: cell membranes, CHO, Membrane; settings: cho; also: in other assays of this panel Not Active means under 50% inhibition at 10 µM
T1 sequence (P21452 whole entry): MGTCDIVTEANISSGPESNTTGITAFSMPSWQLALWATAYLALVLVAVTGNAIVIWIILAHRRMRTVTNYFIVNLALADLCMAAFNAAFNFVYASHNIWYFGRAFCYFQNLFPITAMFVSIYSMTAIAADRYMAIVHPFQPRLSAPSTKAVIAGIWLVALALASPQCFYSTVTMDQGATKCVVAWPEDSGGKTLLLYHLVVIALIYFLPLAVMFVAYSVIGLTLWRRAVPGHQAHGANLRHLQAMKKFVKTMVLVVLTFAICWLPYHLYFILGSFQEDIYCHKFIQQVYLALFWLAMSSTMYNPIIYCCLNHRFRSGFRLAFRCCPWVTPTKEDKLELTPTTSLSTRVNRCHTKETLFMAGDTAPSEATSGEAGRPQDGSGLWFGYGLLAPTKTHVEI

[2] = target: Matrix metalloproteinase-9 (Homo sapiens, UniProt P14780); test: biochemical; type: cell-based;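 also: inhibition of isolated MMP-9 enzyme activity toward a synthetic peptide substrate, from the DrugMatrix protease screening panel; in other assays of this panel Not Active means under 50% inhibition at 10 µM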
[3] = DRUGMATRIX: Calcium Channel Type L, Benzothiazepine radioligand binding (ligand: [3H] Diltiazem); type: cell membranes, Rattus norvegicus, Wistar, Brain, Membrane; settings: Not Active = under 50% inhibition at 10 µM
[4] = target: T2, Thromboxane-A synthase (Homo sapiens, UniProt P24557); test: biochemical; type: tissue-based, Platelet; settings: platelet;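 also: enzyme inhibition assay with PGH2 supplied as substrate; in other assays of this panel Not Active means under 50% inhibition at 10 µM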
T2 sequence (P24557 whole entry): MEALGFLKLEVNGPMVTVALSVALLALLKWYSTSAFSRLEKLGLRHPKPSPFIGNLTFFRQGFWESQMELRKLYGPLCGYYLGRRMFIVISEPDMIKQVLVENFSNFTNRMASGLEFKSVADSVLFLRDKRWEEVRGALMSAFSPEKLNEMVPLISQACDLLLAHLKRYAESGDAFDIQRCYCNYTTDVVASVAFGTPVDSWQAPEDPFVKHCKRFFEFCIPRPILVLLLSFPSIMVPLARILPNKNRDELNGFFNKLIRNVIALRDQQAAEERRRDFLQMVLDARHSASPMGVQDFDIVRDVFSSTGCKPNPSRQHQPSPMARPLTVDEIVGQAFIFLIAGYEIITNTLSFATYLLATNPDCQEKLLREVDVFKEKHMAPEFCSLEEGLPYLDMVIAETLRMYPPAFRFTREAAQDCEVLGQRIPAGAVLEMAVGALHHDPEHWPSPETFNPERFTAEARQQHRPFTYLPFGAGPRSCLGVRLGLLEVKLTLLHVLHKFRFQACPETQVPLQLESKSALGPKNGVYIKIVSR

[5] = target: cGMP-specific 3',5'-cyclic phosphodiesterase (Homo sapiens, UniProt O76074); test: DRUGMATRIX: Phosphodiesterase PDE5 enzyme inhibition (substrate: [3H]cGMP + cGMP); type: tissue-based, Platelet; settings: platelet; Not Active = under 50% inhibition at 10 µM

Sequence of Matrix metalloproteinase-9 (P14780 whole entry): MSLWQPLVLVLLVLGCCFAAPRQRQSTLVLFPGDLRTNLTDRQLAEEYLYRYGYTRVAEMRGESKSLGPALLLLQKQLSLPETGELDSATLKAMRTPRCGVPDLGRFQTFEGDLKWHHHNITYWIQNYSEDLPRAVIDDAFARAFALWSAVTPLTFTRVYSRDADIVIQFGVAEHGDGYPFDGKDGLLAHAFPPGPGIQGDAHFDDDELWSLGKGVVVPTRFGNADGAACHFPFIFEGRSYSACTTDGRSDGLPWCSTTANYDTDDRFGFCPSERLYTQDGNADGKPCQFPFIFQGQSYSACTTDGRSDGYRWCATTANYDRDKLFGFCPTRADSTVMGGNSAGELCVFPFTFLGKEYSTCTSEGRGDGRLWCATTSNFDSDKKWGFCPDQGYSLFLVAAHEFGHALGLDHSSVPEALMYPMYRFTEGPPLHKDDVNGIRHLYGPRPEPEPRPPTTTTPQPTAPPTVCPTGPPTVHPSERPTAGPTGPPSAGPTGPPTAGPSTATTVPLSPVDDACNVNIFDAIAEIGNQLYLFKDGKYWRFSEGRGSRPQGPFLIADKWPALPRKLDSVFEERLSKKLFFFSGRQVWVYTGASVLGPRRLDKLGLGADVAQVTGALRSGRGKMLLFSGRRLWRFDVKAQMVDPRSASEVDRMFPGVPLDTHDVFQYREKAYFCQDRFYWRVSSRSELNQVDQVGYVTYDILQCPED

Compound	IC50 [1]	IC50 [2]	IC50 [3]	Ki [3]	IC50 [4]	IC50 [5]	IC50 ([2]; read-out: IC50) [µM]	IC50 ([3]; read-out: IC50) [µM]	Ki ([3]; read-out: Ki) [µM]	Ki [1]	Ki [2]	Ki [4]	Ki [5]	IC50 ([1]; read-out: IC50) [µM]	Ki ([1]; read-out: Ki) [µM]	IC50 ([4]; read-out: IC50) [µM]
C[n+]1ccccc1/C=N/O.[Cl-] [PRALIDOXIME CHLORIDE]	Not Active	Not Active	Not Active	Not Active	Not Active	Not Active										
COc1cc2nc(N3CCN(C(=O)c4ccco4)CC3)nc(N)c2cc1OC [PRAZOSIN]	Not Active		Not Active	Not Active	Not Active	Not Active	6.96									
C[C@]12C=CC(=O)C=C1CC[C@@H]1[C@@H]2[C@@H](O)C[C@@]2(C)[C@H]1CC[C@]2(O)C(=O)CO [PREDNISOLONE]	Not Active	Not Active	Not Active	Not Active	Not Active	Not Active										
CC(=O)[C@H]1[C@H](C#N)C[C@H]2[C@@H]3CC=C4C[C@@H](O)CC[C@]4(C)[C@H]3CC[C@@]21C [PREGNENOLONE CARBONITRILE]	Not Active	Not Active	Not Active	Not Active	Not Active	Not Active										
CCCN(CCC)S(=O)(=O)c1ccc(C(=O)O)cc1 [PROBENECID]	Not Active	Not Active	Not Active	Not Active	Not Active	Not Active										
CCCNCC(O)COc1ccccc1C(=O)CCc1ccccc1 (centres undefined) [PROPAFENONE]	Not Active	Not Active			Not Active	Not Active		0.775	0.689							
CCCOc1ccc(C(=O)OCCN(CC)CC)cc1N [PROPARACAINE]	Not Active	Not Active	Not Active	Not Active	Not Active	Not Active										
CC(C)c1cccc(C(C)C)c1O [PROPOFOL]	Not Active	Not Active	Not Active	Not Active	Not Active	Not Active										
C[C@@H]1O[C@@H](O[C@@H]2C=C3CC[C@@H]4[C@H](CC[C@]5(C)[C@@H](c6ccc(=O)oc6)CC[C@]45O)[C@@]3(C)CC2)[C@H](O)[C@H](O)[C@H]1O [PROSCILLARIDIN]	Not Active	Not Active	Not Active	Not Active	Not Active	Not Active										
Oc1cccc(O)c1O [PYROGALLOL]	Not Active	Not Active	Not Active	Not Active	Not Active	Not Active										
AURANOFIN	Not Active	Not Active	Not Active	Not Active	Not Active	Not Active				Not Active	Not Active	Not Active	Not Active			
GADOPENTETATE DIMEGLUMINE	Not Active	Not Active	Not Active	Not Active	Not Active	Not Active				Not Active	Not Active	Not Active	Not Active			
GENTAMICIN	Not Active	Not Active	Not Active	Not Active	Not Active	Not Active				Not Active	Not Active	Not Active	Not Active			
GRAMICIDIN		Not Active	Not Active	Not Active		Not Active					Not Active		Not Active	4.56	1.52	0.774
NYSTATIN	Not Active	Not Active	Not Active	Not Active	Not Active	Not Active				Not Active	Not Active	Not Active	Not Active			
